# How the values were obtained:
# IL-1β = assay: Cytokine Release from Human PBMCs: IL-1β; type: cell-based; settings: LPS, 24 hours, Concentration 100 μM
# Description: Human donor blood (8 mL) was collected in sodium citrate CPT tubes and centrifuged at 1,600×g for 20 minutes at room temperature. Buffy coat containing PBMCs was collected and transferred to a 50 mL conical tube containing 30 mL of RPMI-1640 medium at room temperature (supplemented with penicillin-streptomycin). PBMCs samples were centrifuged at 400×g for 10 minutes at 10° C. The pelleted PBMCs were washed twice in 10 ml of RPMI-1640 medium (supplemented with penicillin-streptomycin), then resuspended in RPMI-1640 medium (supplemented with penicillin-streptomycin, fetal bovine serum, and L-Glutamine). PBMCs were filtered through a 70 micron mesh to remove any cellular debris. […] PBMCs in a 96-well plate were rested for 30 minutes in a 37° C., 5% CO2 incubator, then subsequently treated with 10 μI of indicated compound. After 2 hours 10 μL of LPS (0111:64) 1 mg/mL was added to test wells. After 24 hours of incubation at 37° C., 5% CO2, 100 μL of cell supernatant was collected and transferred to a 96-well plate (non-tissue treated, flat bottom). The plate was centrifuged at 350×g for 5 minutes at room temperature, and then the clear supernatant transferred to a new 96-well plate (non-tissue treated, flat bottom). The remaining cells were tested for viability using CellTiter-Glo® Luminescent Cell Viability Assay (Promega). The supernatant was analyzed for TNFα, IL-6 and IL-1β (kit […] Systems), using Luminex Immunoassay Technology (MAGPIX System).
# IL-8 = assay: Neutrophil Chemokine Production Assay: IL-8; type: cell-based; settings: human neutrophils, 12 h
# Outline: (§1)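 Neutrophils were isolated from human blood by Histopaque-1077 separation and RBC lysis, then plated at 2.0×10^5 cells/well in RPMI complete. Cells were stimulated with LPS (10 μL of a 2 μg/mL solution) for 12 h at 37 °C. Supernatant chemokines were measured by Luminex multiplex, averaging three data points from two donors.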
# [1] = system: experimental autoimmune encephalomyelitis (EAE); assay: In Vivo EAE Model of Multiple Sclerosis; parameters: species or system C57BL/6J mice
# Description: For experimental autoimmune encephalomyelitis (EAE) study, 8- to 11-week-old C57BL/6J mice were anesthetized and subcutaneously injected with […] and […]. Pertussis toxin (200 ng/mouse) was applied i.p. on days 0. Daily clinical evaluation was performed via a 5-point scale, and the clinical progression was observed over 28 days (FIG. 2A). […] At the end of the study, flow cytometry analysis was performed on the spleen (n=8 per group). […] Statistical analysis was performed with GraphPad Prism (GraphPad Software). Unpaired t test was used to assess significance between the control (Vehicle) and each treatment group. For experimental autoimmune encephalomyelitis (EAE) studies, 8- to 11-week old C57BL/6J mice were anesthetized and subcutaneously injected with […] and […]. Pertussis toxin (200 ng/mouse) was applied intraperitoneally on day 0. Daily clinical evaluation as performed using a 5-point scale and the clinical progression was observed over 28 days (FIGS. 2C and 2D).
# MIP-1α = assay: Neutrophil Chemokine Production Assay: MIP-1α; type: cell-based; settings: human neutrophils, 12 h
# Outline: as §1
smiles,measurement,setting,value
CCC(=O)O [propionate],IL1β % DMSO control,IL-1β,+ ((+) 50% > <90% DMSO)
same,% IL-8 (Vehicle + LPS = 100%),IL-8; Conc. 500.0 μM,− (− = >90% Vehicle)
same,% IL-8 (Vehicle + LPS = 100%),IL-8; Conc. 1000.0 μM,++ (++ = <70% Vehicle)
same,% IL-8 (Vehicle + LPS = 100%),IL-8; Conc. 3000.0 μM,+++ (+++ = <50% Vehicle)
same,EAE score (5-point scale) compared to control (vehicle only),"[1]; Study 1, 200 mM in drinking water, 28 days",lower EAE scores
same,"TH17 cell (CD3+)/regulatory T cells (CD3+, Foxp3+) ratio","[1]; Study 1, spleen flow cytometry at end of study, 200 mM in drinking water, vs vehicle, P<0.05",significantly reduced
same,% MIP-1α (Vehicle + LPS = 100%),MIP-1α; Conc. 500.0 μM,+++ (+++ = <50% Vehicle)
same,% MIP-1α (Vehicle + LPS = 100%),MIP-1α; Conc. 1000.0 μM,+++ (+++ = <50% Vehicle)
same,% MIP-1α (Vehicle + LPS = 100%),MIP-1α; Conc. 3000.0 μM,+++ (+++ = <50% Vehicle)

# Reference: patent US20210299079A1, “MONOMETHYL FUMARATE-CARRIER CONJUGATES AND METHODS OF THEIR USE” (Flagship Pioneering Innovations V, Inc., priority 2018, published 2021)
